Laboratory results taken from patent US20170240522A1, “BENZOTHIOPHENE, BENZYLOXYBENZYLIDENE AND INDOLINE DERIVATIVES USEFUL FOR THE TREATMENT OF TUBERCULOSIS” (priority 2014, published 2017).

Columns and labels:
[1] = tested on: MRC-5 lung fibroblasts; assay: Fibroblast survival assay (FSA); format: cell-based; conditions: Homo sapiens, MRC5; read-out: IC50 of protection of fibroblasts
[2] = tested on: Mtb-Erdman; assay: Growth of Mtb in 7H9 broth; format: cell-based, Mycobacterium tuberculosis; conditions: 25 μM
[3] = tested on: several other mycobacteria and non-mycobacterial pathogens; assay: REMA assay of non-Mtb strains; format: cell-based
[4] = tested on: Ag85 complex proteins; format: cell-based, Mycobacterium tuberculosis; conditions: 5 μM
[5] = tested on: Mtb culture filtrate proteins; assay: Secretome analysis of culture filtrate (LC/MS-MS); format: cell-based, Mycobacterium tuberculosis; conditions: 5 μM
Method: For the secretome analysis 10 μg of protein was reconstituted in 200 μl of 4 M Urea, 10% acetonitrile and buffered with Tris-HCl pH 8.5 to a final concentration of 30 mM. Proteins were reduced in 10 mM dithioerythritol (DTE) at 37° C. for 60 min. and then alkylated in 40 mM iodoacetamide at 37° C. for 45 min. Reactions were quenched by addition of DTE to a final concentration of 10 mM. First, protein digestion was performed using Lys-C (1:50 enzyme:protein) for 2 hours at 37° C. The lysates were then diluted 5-fold and a second digestion was performed overnight at 37° C. using mass spectrometry grade trypsin gold (1:50 enzyme:protein) and 10 mM CaCl2. Reactions were stopped by addition of 8 μl of pure formic acid and peptides were concentrated by vacuum centrifugation to a final volume of 70 μl.
• After digestions, samples were dimethyl-labeled as described previously (Boersema et al., 2009). […]
• Each SAX fraction was resuspended in 2% acetonitrile, 0.1% FA and loaded on a capillary pre-column (Magic AQ C18; 3 μm by 200 Å; 2 cm×100 μm ID). […] Relative quantification within different conditions was obtained calculating the significance B values for each of the identified proteins using Perseus (Cox et al., 2009).

[6] = tested on: mycobacterial outer membrane permeability; assay: Ethidium bromide (EtBr) uptake assay; format: cell-based, Mycobacterium tuberculosis; conditions: 10 μM
Method: (§1) Bacteria were grown for 24 hours in the presence of test compounds. The BacTiter-Glo microbial cell viability reagent (Promega) was used for the quantification of ATP according to the recommendations of the manufacturer. For EtBr uptake assays, bacteria were washed with PBS containing 0.05% Tween 80, OD600 was adjusted to 0.4 and 100 μl were pipetted into black 96 well plates. EtBr was added (4 μM final concentration) and fluorescence was read every 2 min. at 545/600 nm. Unpaired Student's T-tests were used for statistical analyses.
To investigate whether BBH7 alters mycobacterial outer membrane permeability, which might explain the transcriptomic pattern associated with metal-ion toxicity, the Applicant performed ethidium bromide (EtBr) uptake assays after treatment with the compounds of interest. These assays identify altered outer membrane permeability by an increase of fluorescence after binding of EtBr to bacterial nucleic acids. […] This was not observed with BTP15.

[7] = tested on: ATP-levels of Mtb; assay: Quantification of intracellular ATP levels; format: cell-based, Mycobacterium tuberculosis; conditions: 10 μM, 24 hours
Method: as §1

[8] = tested on: THP-1 macrophages; assay: Survival of Mtb-infected activated THP-1 macrophages; format: cell-based, human; conditions: activated THP-1, higher MOI, 10 μM
[9] = tested on: Mtb-GFP inside activated THP-1 cells; format: cell-based, Mycobacterium tuberculosis; conditions: activated THP-1, 10 μM
[10] = tested on: ESX-1; assay: ESX-1 inhibitory activity of inhibitors of mycobacterium virulence (Table VII); format: cell-based, Mycobacterium tuberculosis
[11] = tested on: GroEL; conditions: BBH7 and BTP15 treatment
Method: In brief, 30 ml of bacteria grown to mid-logarithmic phase (OD600 of 0.6 to 0.7) in Sauton's medium supplemented with 0.05% Tween 80 were centrifuged and resuspended in Sauton's medium without Tween. Compounds were added at concentrations as indicated and cells were grown further at 37° C. with shaking for 4 days. Cultures were harvested by centrifugation to obtain culture filtrates and cell pellets. Culture filtrates were concentrated 100-fold in 5-kDa cutoff Vivaspin columns (Sartorius). Cell lysates were prepared by bead beating bacterial pellets in lysis buffer with 100-μm glass beads.
For immunoblot analysis, 5 μg of protein were resolved by SDS-gel electrophoresis and transferred to nitrocellulose membranes. Membranes were blocked with TBS-buffer (3% milk powder) and incubated overnight with the desired primary antibody diluted in TNT-buffer supplemented with 1% BSA fraction V. Membranes were washed with TNT, incubated with the appropriate secondary antibody in TNT-BSA, washed again with TNT, and developed. GroEL2 was used as a lysis control for culture filtrates and as a loading control for cell lysates.

CSC(=S)N/N=C(\C)c1ccc(OCc2ccc(F)cc2F)cc1 [BBH7, N′-{1-[4-(2,4-Difluoro-benzyloxy)-phenyl]ethylidene}-hydrazinecarbodithioic acid methyl ester] was tested, and the IC50 [1] was 2.4 µM, the “growth inhibition of Mtb” value [2] was “no growth inhibition” and the MIC99 [3] was greater than 100 µM. For the same molecule, the Ag85 secretion [4] was “fully blocked”, the “reduction of total culture filtrate protein” value [5] was 50% and the “abundance of ESX-5 substrates (EsxN/EsxM, PE25, PPE41) in culture filtrate” value ([5]; LC-MS/MS) was “significantly reduced in abundance”. The “EtBr accumulation and fluorescence” value [6] was “increases EtBr accumulation and fluorescence”, the “mycobacterial ATP levels” value [7] was “not found to be reduced” and the “protection of THP-1 cells from Mtb-induced cell death” value [8] was “protected THP-1 cells from Mtb-induced cell death”. For the same molecule, the intracellular bacterial load [9] was “greatly reduced the intracellular bacterial load”, the Activity [10] was 97% and the “GroEL in the culture filtrate (cell lysis)” value [11] was “not observed”.
